Target: T1, menin-MLL interaction (Menin MLL 4-43) (Homo sapiens, UniProt O00255)
T1 sequence (O00255 1-610): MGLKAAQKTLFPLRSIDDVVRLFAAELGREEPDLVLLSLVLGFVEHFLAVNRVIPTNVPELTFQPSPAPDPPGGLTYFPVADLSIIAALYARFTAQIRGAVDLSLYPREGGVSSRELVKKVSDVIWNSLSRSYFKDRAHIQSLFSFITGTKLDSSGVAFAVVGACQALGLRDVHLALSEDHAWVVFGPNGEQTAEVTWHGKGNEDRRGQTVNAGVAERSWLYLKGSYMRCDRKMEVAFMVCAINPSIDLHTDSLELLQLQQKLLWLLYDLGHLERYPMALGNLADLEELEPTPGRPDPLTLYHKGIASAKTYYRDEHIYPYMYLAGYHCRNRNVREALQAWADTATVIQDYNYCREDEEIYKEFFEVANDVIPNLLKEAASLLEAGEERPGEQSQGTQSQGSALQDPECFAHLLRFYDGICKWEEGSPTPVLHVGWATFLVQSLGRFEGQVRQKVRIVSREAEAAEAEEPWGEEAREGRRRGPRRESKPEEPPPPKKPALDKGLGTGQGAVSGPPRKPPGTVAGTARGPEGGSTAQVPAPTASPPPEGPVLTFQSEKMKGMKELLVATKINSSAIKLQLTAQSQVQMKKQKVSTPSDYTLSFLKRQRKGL
Experiment: Fluorescence polarization (FP) competition assay
Format: binding
Conditions: fluorescence polarization assay; read-out: Menin MLL 4-43 IC50

IC50 [nM]	SMILES
< 50	Cc1c(CN2CCC(Nc3ncnc4sc(CC(F)(F)F)cc34)CC2)ccc2c1cc(C#N)n2CC12CC(NC(=O)CN3CCCC3)(C1)C2 [Compound 57]
250 to 1000	C=CC(=O)NC12CC(CCn3c(C#N)cc4c(C)c(CN5CCC(Nc6ncnc7sc(CC(F)(F)F)cc67)CC5)ccc43)(C1)C2 [Compound 14]
< 50	CNC(=O)NC12CC(Cn3c(C#N)cc4c(C)c(CN5CCC(Nc6ncnc7sc(CC(F)(F)F)cc67)CC5)ccc43)(C1)C2 [Compound 7]
< 50	Cc1c(CN2CCC(Nc3ncnc4sc(CC(F)(F)F)cc34)CC2)ccc2c1cc(C#N)n2CC12CC(NC(=O)C(C)N)(C1)C2 (stereo not drawn) [Compound 64]
< 50	Cc1c(CN2CCC(Nc3ncnc4sc(CC(F)(F)F)cc34)CC2)ccc2c1cc(C#N)n2CC12CC(NC(=O)CN3CCOCC3)(C1)C2 [Compound 56]
< 50	CCC(=O)NC12CC(Cn3c(C#N)cc4c(C)c(CN5CCC(Nc6nc(N)nc7sc(CC(F)(F)F)cc67)CC5)ccc43)(C1)C2 [Compound 54]
< 50	CCC(=O)NC12CC(Cn3c(C#N)cc4c(C)c(CN5CCC(Nc6nc(NC)nc7sc(CC(F)(F)F)cc67)CC5)ccc43)(C1)C2 [Compound 86]
250 to 1000	Cc1c(CN2CCC(Nc3ncnc4sc(CC(F)(F)F)cc34)CC2)ccc2c1cc(C#N)n2CC12CC(N(C)C)(C1)C2 [Compound 5]
< 50	Cc1c(CN2CCC(Nc3ncnc4sc(CC(F)(F)F)cc34)CC2)ccc2c1cc(C#N)n2CC12CC(NC(=O)CCN)(C1)C2 [Compound 39]
50 to 250	CNC12CC(Cn3c(C#N)cc4c(C)c(CN5CCC(Nc6ncnc7sc(CC(F)(F)F)cc67)CC5)ccc43)(C1)C2 [Compound 10]
< 50	Cc1c(CN2CCC(Nc3ncnc4sc(CC(F)(F)F)cc34)CC2)ccc2c1cc(C#N)n2CC12CC(NC(=O)c3cccc(=O)[nH]3)(C1)C2 [Compound 35]
50 to 250	Cc1c(CN2CCC(Nc3ncnc4sc(CC(F)(F)F)cc34)CC2)ccc2c1cc(C#N)n2CC12CC(NC(=O)c3cnc[nH]3)(C1)C2 [Compound 38]
< 50	Cc1c(CN2CCC(Nc3ncnc4sc(CC(F)(F)F)cc34)CC2)ccc2c1cc(C#N)n2CC12CC(NC(=O)CN(C)C)(C1)C2 [Compound 40]
50 to 250	CCC(=O)NC12CC(Cn3c(C#N)cc4c(C)c(CN5CCC(Nc6nc(C)nc7sc(CC(F)(F)F)cc67)CC5)ccc43)(C1)C2 [Compound 55]
< 50	CC(=O)NC12CC(Cn3c(C#N)cc4c(C)c(CN5CCC(Nc6nc(C)nc7sc(CC(F)(F)F)cc67)CC5)ccc43)(C1)C2 [Compound 84]
50 to 250	COCC(=O)NC12CC(Cn3c(C#N)cc4c(C)c(CN5CCC(Nc6ncnc7sc(CC(F)(F)F)cc67)CC5)ccc43)(C1)C2 [Compound 43]
250 to 1000	Cc1c(CN2CCC(Nc3ncnc4sc(CC(F)(F)F)cc34)CC2)ccc2c1cc(C#N)n2CC12CC(NC(=O)Cc3ccccc3)(C1)C2 [Compound 77]
50 to 250	CNC(=O)C12CC(Cn3c(C#N)cc4c(C)c(CN5CCC(Nc6ncnc7sc(CC(F)(F)F)cc67)CC5)ccc43)(C1)C2 [Compound 18]
250 to 1000	Cc1c(CN2CCC(Nc3ncnc4sc(CC(F)(F)F)cc34)CC2)ccc2c1cc(C#N)n2CC12CC(NC(=O)C(F)(F)F)(C1)C2 [Compound 6]
250 to 1000	CC(=O)N[C@H]1C[C@@H](Cn2c(C#N)cc3c(C)c(CN4CCC(Nc5ncnc6sc(CC(F)(F)F)cc56)CC4)ccc32)C1 [Compound 31]
50 to 250	Cc1c(CN2CCC(Nc3ncnc4sc(CC(F)(F)F)cc34)CC2)ccc2c1cc(C#N)n2CC12CC(NC(=O)C3(N)CC3)(C1)C2 [Compound 60]
250 to 1000	Cc1c(CN2CCC(Nc3ncnc4sc(CC(F)(F)F)cc34)CC2)ccc2c1cc(C#N)n2CC12CC(NC(=O)C(N)CC(F)(F)F)(C1)C2 (stereo not drawn) [Compound 74]
50 to 250	Cc1c(CN2CCC(Nc3ncnc4sc(CC(F)(F)F)cc34)CC2)ccc2c1cc(C#N)n2CC12CC(NC(=O)C(C)(C)O)(C1)C2 [Compound 63]
< 50	CNCC(=O)NC12CC(Cn3c(C#N)cc4c(C)c(CN5CCC(Nc6ncnc7sc(CC(F)(F)F)cc67)CC5)ccc43)(C1)C2 [Compound 48]
250 to 1000	Cc1c(CN2CCC(Nc3ncnc4sc(CC(F)(F)F)cc34)CC2)ccc2c1cc(C#N)n2CC12CC(NC(=O)C(N)C(F)(F)F)(C1)C2 (stereo not drawn) [Compound 69]
> 1000	Cc1c(CN2CCC(Nc3ncnc4sc(CC(F)(F)F)cc34)CC2)ccc2c1cc(C#N)n2CC12CC(C(=O)O)(C1)C2 [Compound 20]
< 50	Cc1c(CN2CCC(Nc3ncnc4sc(CC(F)(F)F)cc34)CC2)ccc2c1cc(C#N)n2CC12CC(NC(=O)C3CCCN3)(C1)C2 (stereo not drawn) [Compound 41]

IC50 [nM]	SMILES
250 to 1000	Cc1c(CN2CCC(Nc3ncnc4sc(CC(F)(F)F)cc34)CC2)ccc2c1cc(C#N)n2CCC12CC(N)(C1)C2 [Compound 11]
50 to 250	C=CC(=O)N[C@H]1C[C@@H](Cn2c(C#N)cc3c(C)c(CN4CCC(Nc5ncnc6sc(CC(F)(F)F)cc56)CC4)ccc32)C1 [Compound 29]
< 50	Cc1c(CN2CCC(Nc3ncnc4sc(CC(F)(F)F)cc34)CC2)ccc2c1cc(C#N)n2CC12CC(NC(=O)C3CCCN3C)(C1)C2 (stereo not drawn) [Compound 58]
250 to 1000	Cc1c(CN2CCC(Nc3ncnc4sc(CC(F)(F)F)cc34)CC2)ccc2c1cc(C#N)n2CC12CC(NC(=O)CNC=O)(C1)C2 [Compound 33]
< 50	Cc1c(CN2CCC(Nc3ncnc4sc(CC(F)(F)F)cc34)CC2)ccc2c1cc(C#N)n2CC12CC(NC(=O)C(N)C(C)C)(C1)C2 (stereo not drawn) [Compound 62]
< 50	Cc1nc(NC2CCN(Cc3ccc4c(cc(C#N)n4CC45CC(NC=O)(C4)C5)c3C)CC2)c2cc(CC(F)(F)F)sc2n1 [Compound 83]
50 to 250	Cc1c(CN2CCC(Nc3ncnc4sc(CC(F)(F)F)cc34)CC2)ccc2c1cc(C#N)n2CC12CC(NC(=O)C3(O)CC3)(C1)C2 [Compound 68]
50 to 250	CCCCC(N)C(=O)NC12CC(Cn3c(C#N)cc4c(C)c(CN5CCC(Nc6ncnc7sc(CC(F)(F)F)cc67)CC5)ccc43)(C1)C2 (stereo not drawn) [Compound 72]
50 to 250	Cc1c(CN2CCC(Nc3ncnc4sc(CC(F)(F)F)cc34)CC2)ccc2c1cc(C#N)n2CC12CC(NC(=O)CO)(C1)C2 [Compound 16]
< 50	CNc1nc(NC2CCN(Cc3ccc4c(cc(C#N)n4CC45CC(NC(=O)Cc6cccc(N)c6)(C4)C5)c3C)CC2)c2cc(CC(F)(F)F)sc2n1 [Compound 79]
< 50	CNc1nc(NC2CCN(Cc3ccc4c(cc(C#N)n4CC45CC(NC(=O)Cc6ccccc6N)(C4)C5)c3C)CC2)c2cc(CC(F)(F)F)sc2n1 [Compound 80]
50 to 250	Cc1c(CN2CCC(Nc3ncnc4sc(CC(F)(F)F)cc34)CC2)ccc2c1cc(C#N)n2CC12CC(NC(=O)C(O)CO)(C1)C2 (stereo not drawn) [Compound 67]
50 to 250	Cc1c(CN2CCC(Nc3ncnc4sc(CC(F)(F)F)cc34)CC2)ccc2c1cc(C#N)n2CC12CC(NC(=O)c3ccc[nH]3)(C1)C2 [Compound 34]
< 50	CNC(CO)C(=O)NC12CC(Cn3c(C#N)cc4c(C)c(CN5CCC(Nc6ncnc7sc(CC(F)(F)F)cc67)CC5)ccc43)(C1)C2 (stereo not drawn) [Compound 76]
< 50	Cc1c(CN2CCC(Nc3ncnc4sc(CC(F)(F)F)cc34)CC2)ccc2c1cc(C#N)n2CC12CC(NC(=O)CN)(C1)C2 [Compound 17]
< 50	CNc1nc(NC2CCN(Cc3ccc4c(cc(C#N)n4CC45CC(NC=O)(C4)C5)c3C)CC2)c2cc(CC(F)(F)F)sc2n1 [Compound 85]
50 to 250	C=CC(=O)N[C@H]1C[C@H](Cn2c(C#N)cc3c(C)c(CN4CCC(Nc5ncnc6sc(CC(F)(F)F)cc56)CC4)ccc32)C1 [Compound 30]
50 to 250	CC(=O)NC12CC(Cn3c(C#N)cc4c(C)c(CN5CCC(Nc6ncnc7sc(CC(F)(F)F)cc67)CC5)ccc43)(C1)C2 [Compound 2]
50 to 250	Cc1c(CN2CCC(Nc3ncnc4sc(CC(F)(F)F)cc34)CC2)ccc2c1cc(C#N)n2CC12CC(NC(=O)C3CC3)(C1)C2 [Compound 9]
50 to 250	C=CC(=O)NC12CC(Cn3c(C#N)cc4c(C)c(CN5CCC(Nc6ncnc7sc(CC(F)(F)F)cc67)CC5)ccc43)(C1)C2 [Compound 1]
50 to 250	Cc1c(CN2CCC(Nc3ncnc4sc(CC(F)(F)F)cc34)CC2)ccc2c1cc(C#N)n2CC12CC(NC(=O)C(C)O)(C1)C2 (stereo not drawn) [Compound 66]
< 50	Cc1c(CN2CCC(Nc3ncnc4sc(CC(F)(F)F)cc34)CC2)ccc2c1cc(C#N)n2CC12CC(NC=O)(C1)C2 [Compound 15]
< 50	CC[C@@H](NC)C(=O)NC12CC(Cn3c(C#N)cc4c(C)c(CN5CCC(Nc6ncnc7sc(CC(F)(F)F)cc67)CC5)ccc43)(C1)C2 [Compound 70]
< 50	Cc1c(CN2CCC(Nc3ncnc4sc(CC(F)(F)F)cc34)CC2)ccc2c1cc(C#N)n2CC12CC(NC(=O)C(N)c3ccccc3)(C1)C2 (stereo not drawn) [Compound 65]
< 50	Cc1c(CN2CCC(Nc3ncnc4sc(CC(F)(F)F)cc34)CC2)ccc2c1cc(C#N)n2CC12CC(C(=O)NCCN)(C1)C2 [Compound 37]
50 to 250	CC(=O)N[C@H]1C[C@H](Cn2c(C#N)cc3c(C)c(CN4CCC(Nc5ncnc6sc(CC(F)(F)F)cc56)CC4)ccc32)C1 [Compound 32]
50 to 250	Cc1c(CN2CCC(Nc3ncnc4sc(CC(F)(F)F)cc34)CC2)ccc2c1cc(C#N)n2CC12CC(NC(=O)C(C)C)(C1)C2 [Compound 8]
